Assay results taken from ChEMBL document CHEMBL1156754, “Human P2Y(14) receptor agonists: truncation of the hexose moiety of uridine-5'-diphosphoglucose and its replacement with alkyl and aryl groups” (J Med Chem, 2010).
The source made the active and inactive calls. No cut-off for these calls is given here.

biological target: T1, P2Y purinoceptor 6 (Homo sapiens, UniProt Q15077); assay: Agonist activity at human P2Y6 receptor expressed in human 1321N1 cells coexpressing phospholipase C-activating Gq protein assessed as [3H]inositol phosphate production; type: functional, cell-based; conditions: 1321-n1
T1 sequence (Q15077 whole entry): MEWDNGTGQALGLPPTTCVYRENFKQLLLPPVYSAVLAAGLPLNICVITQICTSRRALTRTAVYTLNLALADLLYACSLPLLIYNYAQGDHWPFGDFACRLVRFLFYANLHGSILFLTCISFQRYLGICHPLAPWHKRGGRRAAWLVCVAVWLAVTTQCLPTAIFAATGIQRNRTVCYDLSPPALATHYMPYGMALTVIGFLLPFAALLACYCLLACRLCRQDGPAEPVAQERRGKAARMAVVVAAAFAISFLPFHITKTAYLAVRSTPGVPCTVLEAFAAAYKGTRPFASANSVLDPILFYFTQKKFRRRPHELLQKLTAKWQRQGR

SMILES	EC50
O=c1ccn([C@@H]2O[C@H](COP(=O)(O)C(F)(F)P(=O)(O)O)[C@@H](O)[C@H]2O)c(=O)[nH]1	Not Active

same assay, conditions: read-out: EC50

SMILES	EC50
O=c1ccn([C@@H]2O[C@H](COP(=O)(O)OP(=O)(O)O)[C@@H](O)[C@H]2O)c(=O)[nH]1 [URIDINE_DIPHOSPHATE]	0.53 µM
O=c1ccn([C@@H]2O[C@H](COP(=O)(O)OP(=O)(O)Oc3cccc(Cl)c3)[C@@H](O)[C@H]2O)c(=O)[nH]1	7.37 µM
O=c1[nH]c(=S)ccn1[C@@H]1O[C@H](COP(=O)(O)OP(=O)(O)O)[C@@H](O)[C@H]1O	2.36 µM
O=c1ccn([C@@]23C[C@H]2[C@H](COP(=O)(O)OP(=O)(O)O)[C@@H](O)[C@H]3O)c(=O)[nH]1	0.042 µM
O=c1ccn([C@@H]2O[C@H](COP(=O)(O)OP(=O)(O)O)[C@@H](O)[C@H]2O)c(=S)[nH]1	0.447 µM
CCN(CC)CC.COP(=O)(O)OP(=O)(O)OC[C@H]1O[C@@H](n2ccc(=S)[nH]c2=O)[C@H](O)[C@@H]1O	10.4 µM
CC(C)(C)OP(=O)(O)OP(=O)(O)OC[C@H]1O[C@@H](n2ccc(=O)[nH]c2=S)[C@H](O)[C@@H]1O	2.04 µM
CO/N=c1/ccn([C@@H]2O[C@H](COP(=O)(O)OP(=O)(O)O)[C@@H](O)[C@H]2O)c(=O)[nH]1	0.07 µM
O=c1ccn([C@@H]2O[C@H](COP(=O)(O)OP(=O)(O)Oc3ccc([N+](=O)[O-])cc3)[C@@H](O)[C@H]2O)c(=O)[nH]1	2.76 µM
O=c1[nH]c(=O)n([C@@H]2O[C@H](COP(=O)(O)C(F)(F)P(=O)(O)O)[C@@H](O)[C@H]2O)cc1I	0.127 µM
O=c1ccn([C@@H]2O[C@H](COP(=O)(O)CP(=O)(O)O)[C@@H](O)[C@H]2O)c(=S)[nH]1	1.99 µM
C#CCCOP(=O)(O)OP(=O)(O)OC[C@H]1O[C@@H](n2ccc(=O)[nH]c2=O)[C@H](O)[C@@H]1O	1.52 µM
O=c1ccn([C@@H]2O[C@H](COP(=O)(O)OP(=O)(O)Oc3ccccc3)[C@@H](O)[C@H]2O)c(=O)[nH]1	7.4 µM
CCCOP(=O)(O)OP(=O)(O)OC[C@H]1O[C@@H](n2ccc(=O)[nH]c2=S)[C@H](O)[C@@H]1O	9.1 µM
O=c1ccn([C@@H]2O[C@H](COP(=O)(O)CP(=O)(O)O)[C@@H](O)[C@H]2O)c(=O)[nH]1	0.339 µM

biological target: T2, P2Y purinoceptor 14 (Homo sapiens, UniProt Q15391); assay: Agonist activity at human P2Y14 receptor expressed in HEK293 cells coexpressing phospholipase C-activating Gi protein cells assessed as inhibition of forskolin induced [3H]cAMP production; type: functional, cell-based; conditions: hek293
T2 sequence (Q15391 whole entry): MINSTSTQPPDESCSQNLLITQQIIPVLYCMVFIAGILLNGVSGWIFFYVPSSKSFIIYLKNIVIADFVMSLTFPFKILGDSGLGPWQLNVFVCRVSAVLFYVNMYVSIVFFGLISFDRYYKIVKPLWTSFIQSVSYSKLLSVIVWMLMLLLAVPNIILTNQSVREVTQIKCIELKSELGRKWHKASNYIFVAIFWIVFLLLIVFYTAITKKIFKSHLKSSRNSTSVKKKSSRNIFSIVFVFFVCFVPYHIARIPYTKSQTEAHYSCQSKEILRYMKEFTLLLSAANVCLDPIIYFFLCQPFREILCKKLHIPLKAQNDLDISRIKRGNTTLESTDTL

SMILES	EC50
CCN(CC)CC.COP(=O)(O)OP(=O)(O)OC[C@H]1O[C@@H](n2ccc(=S)[nH]c2=O)[C@H](O)[C@@H]1O	Not Active

same assay, conditions: read-out: EC50

SMILES	EC50
O=c1ccn([C@@H]2O[C@H](COP(=O)(O)OP(=O)(O)Oc3cccc(Cl)c3)[C@@H](O)[C@H]2O)c(=O)[nH]1	1.8 µM
N#CCCOP(=O)(O)OP(=O)(O)OC[C@H]1O[C@@H](n2ccc(=O)[nH]c2=O)[C@H](O)[C@@H]1O	7.46 µM
O=c1[nH]c(=S)ccn1[C@@H]1O[C@H](COP(=O)(O)OP(=O)(O)O[C@H]2O[C@H](CO)[C@@H](O)[C@H](O)[C@H]2O)[C@@H](O)[C@H]1O	0.011 µM
O=c1[nH]c(=S)ccn1[C@@H]1O[C@H](COP(=O)(O)OP(=O)(O)O)[C@@H](O)[C@H]1O	0.32 µM
C#CCCOP(=O)(O)OP(=O)(O)OC[C@H]1O[C@@H](n2ccc(=O)[nH]c2=S)[C@H](O)[C@@H]1O	0.011 µM
O=c1ccn([C@@H]2O[C@H](COP(=O)(O)OP(=O)(O)O)[C@@H](O)[C@H]2O)c(=S)[nH]1	0.00192 µM
CC(C)(C)OP(=O)(O)OP(=O)(O)OC[C@H]1O[C@@H](n2ccc(=O)[nH]c2=S)[C@H](O)[C@@H]1O	0.032 µM
O=c1ccn([C@@H]2O[C@H](COP(=O)(O)OP(=O)(O)OC3CCCCC3)[C@@H](O)[C@H]2O)c(=O)[nH]1	5.16 µM
CO/N=c1/ccn([C@@H]2O[C@H](COP(=O)(O)OP(=O)(O)O)[C@@H](O)[C@H]2O)c(=O)[nH]1	3.32 µM
O=c1ccn([C@@H]2O[C@H](COP(=O)(O)OP(=O)(O)OCC(O)CO)[C@@H](O)[C@H]2O)c(=O)[nH]1 (some centres not stated)	1.6 µM
O=c1ccn([C@@H]2O[C@H](COP(=O)(O)OP(=O)(O)Oc3ccc([N+](=O)[O-])cc3)[C@@H](O)[C@H]2O)c(=O)[nH]1	1.49 µM
O=c1[nH]c(=O)n([C@@H]2O[C@H](COP(=O)(O)C(F)(F)P(=O)(O)O)[C@@H](O)[C@H]2O)cc1I	0.142 µM
O=c1ccn([C@@H]2O[C@H](COP(=O)(O)CP(=O)(O)O)[C@@H](O)[C@H]2O)c(=S)[nH]1	0.00092 µM
O=c1ccn([C@@H]2O[C@H](COP(=O)(O)OP(=O)(O)OC(CO)CO)[C@@H](O)[C@H]2O)c(=O)[nH]1	0.167 µM
C#CCCOP(=O)(O)OP(=O)(O)OC[C@H]1O[C@@H](n2ccc(=O)[nH]c2=O)[C@H](O)[C@@H]1O	0.48 µM
CC(C)(C)OP(=O)(O)OP(=O)(O)OC[C@H]1O[C@@H](n2ccc(=O)[nH]c2=O)[C@H](O)[C@@H]1O	0.252 µM
O=c1ccn([C@@H]2O[C@H](COP(=O)(O)C(F)(F)P(=O)(O)O)[C@@H](O)[C@H]2O)c(=O)[nH]1	0.063 µM
O=c1ccn([C@@H]2O[C@H](COP(=O)(O)OP(=O)(O)Oc3ccccc3)[C@@H](O)[C@H]2O)c(=O)[nH]1	0.768 µM
CCOP(=O)(O)OP(=O)(O)OC[C@H]1O[C@@H](n2ccc(=O)[nH]c2=S)[C@H](O)[C@@H]1O	0.039 µM
COc1ccc(OP(=O)(O)OP(=O)(O)OC[C@H]2O[C@@H](n3ccc(=O)[nH]c3=O)[C@H](O)[C@@H]2O)cc1	1.9 µM
COP(=O)(O)OP(=O)(O)OC[C@H]1O[C@@H](n2ccc(=O)[nH]c2=S)[C@H](O)[C@@H]1O	0.056 µM
CCCOP(=O)(O)OP(=O)(O)OC[C@H]1O[C@@H](n2ccc(=O)[nH]c2=S)[C@H](O)[C@@H]1O	0.04 µM
O=c1ccn([C@@H]2O[C@H](COP(=O)(O)CP(=O)(O)O)[C@@H](O)[C@H]2O)c(=O)[nH]1	0.011 µM
COP(=O)(O)OP(=O)(O)OC[C@H]1O[C@@H](n2ccc(=O)[nH]c2=O)[C@H](O)[C@@H]1O	2.73 µM

biological target: T3, P2Y purinoceptor 14 (Homo sapiens) (UniProt Q15391); assay: Agonist activity at human P2Y14 receptor expressed in HEK293 cells coexpressing phospholipase C-activating Gi protein cells assessed as inhibition of forskolin induced [3H]cAMP production at 10 uM; type: functional, cell-based; conditions: not given
T3 sequence (whole entry): T2 sequence (Q15391 whole entry)

SMILES	Activity
O=c1ccn([C@H]2[C@H](O)[C@H](O)[C@@]3(COP(=O)(O)OP(=O)(O)O)C[C@H]23)c(=O)[nH]1	inactive
O=c1ccn([C@@]23C[C@H]2[C@H](COP(=O)(O)OP(=O)(O)O)[C@@H](O)[C@H]3O)c(=O)[nH]1	inactive

biological target: T1, P2Y purinoceptor 6; assay: Agonist activity at human P2Y6 receptor expressed in human 1321N1 cells coexpressing phospholipase C-activating Gq protein assessed as [3H]inositol phosphate production at 10 uM; type: functional, cell-based; conditions: not given

SMILES	Activity	EC50
O=c1ccn([C@H]2[C@H](O)[C@H](O)[C@@]3(COP(=O)(O)OP(=O)(O)O)C[C@H]23)c(=O)[nH]1	inactive	
N#CCCOP(=O)(O)OP(=O)(O)OC[C@H]1O[C@@H](n2ccc(=O)[nH]c2=O)[C@H](O)[C@@H]1O		> 10 µM
O=c1[nH]c(=S)ccn1[C@@H]1O[C@H](COP(=O)(O)OP(=O)(O)O[C@H]2O[C@H](CO)[C@@H](O)[C@H](O)[C@H]2O)[C@@H](O)[C@H]1O		> 10 µM
C#CCCOP(=O)(O)OP(=O)(O)OC[C@H]1O[C@@H](n2ccc(=O)[nH]c2=S)[C@H](O)[C@@H]1O		> 10 µM
O=c1ccn([C@@H]2O[C@H](COP(=O)(O)OP(=O)(O)OC3CCCCC3)[C@@H](O)[C@H]2O)c(=O)[nH]1		> 10 µM
O=c1ccn([C@@H]2O[C@H](COP(=O)(O)OP(=O)(O)OCC(O)CO)[C@@H](O)[C@H]2O)c(=O)[nH]1 (some centres not stated)		> 10 µM
O=c1ccn([C@@H]2O[C@H](COP(=O)(O)OP(=O)(O)OC(CO)CO)[C@@H](O)[C@H]2O)c(=O)[nH]1		> 10 µM
CCOP(=O)(O)OP(=O)(O)OC[C@H]1O[C@@H](n2ccc(=O)[nH]c2=S)[C@H](O)[C@@H]1O		> 10 µM
COc1ccc(OP(=O)(O)OP(=O)(O)OC[C@H]2O[C@@H](n3ccc(=O)[nH]c3=O)[C@H](O)[C@@H]2O)cc1		> 10 µM
COP(=O)(O)OP(=O)(O)OC[C@H]1O[C@@H](n2ccc(=O)[nH]c2=S)[C@H](O)[C@@H]1O		> 10 µM
COP(=O)(O)OP(=O)(O)OC[C@H]1O[C@@H](n2ccc(=O)[nH]c2=O)[C@H](O)[C@@H]1O		> 10 µM

species on record: Homo sapiens; assay: Selectivity, ratio of EC50 for human P2Y6 receptor to EC50 for human P2Y14 receptor; conditions: not given

SMILES	Ratio EC50
O=c1ccn([C@@H]2O[C@H](COP(=O)(O)OP(=O)(O)O)[C@@H](O)[C@H]2O)c(=S)[nH]1	230
CC(C)(C)OP(=O)(O)OP(=O)(O)OC[C@H]1O[C@@H](n2ccc(=O)[nH]c2=S)[C@H](O)[C@@H]1O	64
O=c1ccn([C@@H]2O[C@H](COP(=O)(O)CP(=O)(O)O)[C@@H](O)[C@H]2O)c(=S)[nH]1	2160
O=c1ccn([C@@H]2O[C@H](COP(=O)(O)OP(=O)(O)OC(CO)CO)[C@@H](O)[C@H]2O)c(=O)[nH]1	59
CC(C)(C)OP(=O)(O)OP(=O)(O)OC[C@H]1O[C@@H](n2ccc(=O)[nH]c2=O)[C@H](O)[C@@H]1O	43
CCOP(=O)(O)OP(=O)(O)OC[C@H]1O[C@@H](n2ccc(=O)[nH]c2=S)[C@H](O)[C@@H]1O	> 250
CCCOP(=O)(O)OP(=O)(O)OC[C@H]1O[C@@H](n2ccc(=O)[nH]c2=S)[C@H](O)[C@@H]1O	230
O=c1ccn([C@@H]2O[C@H](COP(=O)(O)CP(=O)(O)O)[C@@H](O)[C@H]2O)c(=O)[nH]1	31
